Consider two compounds from patent US20140322151A1, “Use Of Isosorbide Caprylates/Caprates In Deodorants And Antiperspirants” (CLARIANT INTERNATIONAL LTD, priority 2011, published 2014).

The test concerns axillary body odor. In words: 48-hour sniff test: reduction in body odor after single application of roll-on deodorant base formulation. Format: in vivo, human. The settings on record: base formulation I. How it is done: To determine the reduction in body odor, the following base formulations for roll-on deodorants were used.
Various substances active against body odor were incorporated into the base formulations, for example as a further constituent of component D. These were the following substances:
To determine the reduction in body odor, the deodorizing action was carried out in the 48-hour sniff test, for which the procedure is as follows:
20 subjects are selected according to the following criteria: • female and male • at least 18 years old • nonsmokers • clinically healthy • readily detectable auxiliary body odor under both armpits
The two armpits of the subjects are preconditioned over several days, i.e. no kind of antiperspirants and deodorants are used and a pH-skin-neutral, unperfumed liquid soap is used.
On the 20 pretreated subjects, in the left or right axilla, after a sing application of 250-300 mg of the base formulation comprising active substances against body odor in the component D, three olfactory experts evaluate the axillary body odor and product scent as to intensity before and after treatment over a total of 48 hours.
The opposite axilla is not treated and serves as a standard for determining the relative intensity decrease in axillary body odor compared to the axilla which has been treated with the base formulation comprising active substances against body odor in component D.
As well as the starting value directly before the single application (after 0 hours) and the end value 48 hours after the single application, the intensity of the axillary body odor and product scent is also evaluated after 24 hours. The intensity of the body odor or perfume scent was assessed by the three olfactory experts according to the following scale: • 1=not detectable • 2=slightly detectable • 3=detectable • 4=strongly detectable • 5=very strongly detectable
Comparing the intensities of the body odor (or perfume scent) from the treated axilla and the untreated axilla gives, by virtue of the formula below, the relative intensity decrease in axillary body odor as a result of a single application of 250-300 mg of the base formulation comprising active substances against body odor in component D.

Consider `Cc1cc(CC(C)CC(C)(C)C)n(O)c(=O)c1` (stereo not shown) [Piroctonol], for which the “Result after 24 hours (relative intensity decrease in axillary body odor)” value (24 hours, 0.1% by weight, 5% by weight propylene glycol as solubilizer) amounted to 15%. The “Result after 48 hours (relative intensity decrease in axillary body odor)” value (48 hours, 0.1% by weight, 5% by weight propylene glycol as solubilizer) came to 10%.

As for `CCCCCCC(O)CO` (stereo not shown) [octanediol], where the note is “24 hours after single application, 7.6% by weight”, the “Result after 24 hours (relative intensity decrease in axillary body odor)” value stood at 18%. Besides, the “Result after 48 hours (relative intensity decrease in axillary body odor)” value (48 hours after single application, 7.6% by weight) is 13%.
